According to patent EP4818168A1, “FUSED RING COMPOUND, PHARMACEUTICAL COMPOSITION THEREOF AND USE THEREOF” (priority 2023, dated 2025):
Like-named read-outs stand apart in the source and are kept apart here.

Experiments:
AURKA = molecular target: T1, AURKA (Homo sapiens, UniProt O14965); type: cell-based; conditions: Jurkat cells, 24 h, Table 2
T1 construct: endogenous in cells; host or cells: Jurkat cells
T1 sequence (O14965 1-403): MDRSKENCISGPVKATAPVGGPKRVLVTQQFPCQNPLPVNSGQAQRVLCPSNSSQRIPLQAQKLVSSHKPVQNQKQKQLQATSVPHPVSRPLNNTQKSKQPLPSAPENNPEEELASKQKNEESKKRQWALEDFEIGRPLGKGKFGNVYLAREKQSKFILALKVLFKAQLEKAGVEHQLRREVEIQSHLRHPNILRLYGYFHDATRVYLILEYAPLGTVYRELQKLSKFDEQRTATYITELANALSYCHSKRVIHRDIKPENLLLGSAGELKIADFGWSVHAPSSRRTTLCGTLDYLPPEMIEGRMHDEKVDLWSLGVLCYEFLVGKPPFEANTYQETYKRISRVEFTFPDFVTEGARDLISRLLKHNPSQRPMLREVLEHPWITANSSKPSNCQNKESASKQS
In short: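 Jurkat cells seeded at 1×10^6 cells/500 µL and treated with compound; lysates run on SDS-PAGE, blotted to nitrocellulose and probed overnight at 4°C for AURKA. Chemiluminescent or fluorescent band intensity fitted to a curve to give DC50 for protein degradation.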

Mouse PK study = type: in vivo; conditions: male CD1 mice; for C0/Cmax / half-life / AUC(0-t) at 24 h / clearance / Vd / Tmax: plasma; for half-life / AUC(0-t) at 24 h / clearance / Vd / Tmax: mouse; for AUC(0-t) at 24 h: read-out: AUC0-24; for clearance: read-out: CLp; for Vd: read-out: Vss
Procedure: Male CD1 mice (5-8 weeks old) were administered intravenously (IV) at a dose of 1 mg/kg by tail vein bolus or orally (PO) at doses of 10 mg/kg and 40 mg/kg by gavage. The compound was formulated in a vehicle of 10% DMSO + 10% Solutol HS15 + 80% saline. All animals were given free access to food and water during the experiment. […] Blood samples were centrifuged at 3500 g for 5 min, and the resulting plasma was analyzed by an LC-MS/MS method. The PK parameters were calculated using WinNonlin software (Phoenix®, version 8.3) through non-compartmental analysis methods.

H82 cells = assay: cells; type: cell-based; conditions: Homo sapiens
In short: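 H82 cells in RPMI1640 + 10% FBS exposed to compound (0.1% DMSO final) for 6 days at 37 °C, 5% CO2. Viability read by CellTiter-Glo ATP luminescence, normalised to DMSO and medium controls; IC50 from nonlinear regression of the dose–survival curve.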

SMILES | Percentage of AURKA Degradation Induced by 100 nM Compound in Jurkat Cells (AURKA) | Percentage of AURKA Degradation Induced by 1 µM Compound in Jurkat Cells (AURKA) | C0/Cmax (Mouse PK study; IV 1 mg/kg) [µg/mL] | F (Mouse PK study; PO 10 mg/kg) [%] | C0/Cmax (Mouse PK study; PO 10 mg/kg) [µg/mL] | F (Mouse PK study; PO 40 mg/kg) [%] | C0/Cmax (Mouse PK study; PO 40 mg/kg) [µg/mL] | half-life (Mouse PK study; IV 1 mg/kg) [h] | AUC(0-t) at 24 h (Mouse PK study; IV 1 mg/kg) [µg·h/mL] | clearance (Mouse PK study; IV 1 mg/kg) [L/h/kg] | Vd (Mouse PK study; IV 1 mg/kg) [L/kg] | Tmax (Mouse PK study; PO 10 mg/kg) [h] | half-life (Mouse PK study; PO 10 mg/kg) [h] | AUC(0-t) at 24 h (Mouse PK study; PO 10 mg/kg) [µg·h/mL] | Tmax (Mouse PK study; PO 40 mg/kg) [h] | half-life (Mouse PK study; PO 40 mg/kg) [h] | AUC(0-t) at 24 h (Mouse PK study; PO 40 mg/kg) [µg·h/mL] | IC50 (H82 cells; NCI-H82, H82 cells, 4000 cells/well, CellTiter-Glo, read-out: IC50 in H82 Cells) [µM] | IC50 (H82 cells; NCI-H82, read-out: IC50 in H82 Cells) [µM]
O=C1CCN(c2ccc(N3CCO[C@H](C(=O)N4CCN(c5ccc(Nc6ncc7c(n6)-c6ccc(Cl)cc6C(c6c(F)cccc6F)=NC7)cc5)CC4)C3)nc2)C(=O)N1 [Compound A307] | +++ (Degradation > 70%) | +++ (Degradation > 70%) | 1.527 | 79.7 | 2.46 | 80.6 | 7.283 | 2.28 | 2.45 | 0.38 | 1.04 | 2 | 2.41 | 19.5 | 3.33 | 2.37 | 78.9 | < 1 | –
O=C1CCN(c2ccc(N3CCC4(CC3)CC(N3CCN(C56CC(Nc7ncc8c(n7)-c7ccc(Cl)cc7C(c7c(F)cccc7F)=NC8)(C5)C6)C(=O)C3)CO4)nc2)C(=O)N1 (stereo not drawn) [Compound A321] | +++ (Degradation > 70%) | +++ (Degradation > 70%) | 1.307 | 157 | 4.007 | 130 | 13.233 | 1.89 | 2.63 | 0.37 | 0.97 | 3.33 | 2.13 | 41.4 | 3.33 | 1.97 | 137 | – | < 1
